What was measured:
Assay type in all cases: functional, cell-based
[1] = target: T1, Glucagon-like peptide 1 receptor (Homo sapiens, UniProt P43220); assay: Agonist activity at human GLP1 receptor expressed in HEK293 cells assessed as increase in cAMP level after 5 hrs by CRE driven luciferase reporter gene assay
[2] = target: T2, Gastric inhibitory polypeptide receptor (Homo sapiens, UniProt P48546); assay: Agonist activity at human GIP receptor expressed in HEK293 cells assessed as increase in cAMP level after 5 hrs by CRE driven luciferase reporter gene assay
T2 sequence (P48546 whole entry): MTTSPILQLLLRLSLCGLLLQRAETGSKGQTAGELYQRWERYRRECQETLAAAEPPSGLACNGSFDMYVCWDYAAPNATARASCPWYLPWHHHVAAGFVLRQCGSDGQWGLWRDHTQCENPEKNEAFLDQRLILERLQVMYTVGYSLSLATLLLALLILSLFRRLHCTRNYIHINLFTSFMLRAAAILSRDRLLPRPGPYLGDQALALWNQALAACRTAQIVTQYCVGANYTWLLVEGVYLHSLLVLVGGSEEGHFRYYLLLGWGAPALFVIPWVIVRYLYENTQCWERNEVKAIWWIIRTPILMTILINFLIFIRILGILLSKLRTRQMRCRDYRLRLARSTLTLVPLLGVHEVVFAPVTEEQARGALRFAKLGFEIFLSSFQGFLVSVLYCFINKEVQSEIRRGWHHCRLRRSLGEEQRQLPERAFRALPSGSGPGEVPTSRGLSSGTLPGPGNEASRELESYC

[3] = target: T1, Glucagon-like peptide 1 receptor; assay: Agonist activity at human GLP1 receptor expressed in HEK293 cells assessed as increase in cAMP level after 5 hrs by CRE driven luciferase reporter gene assay relative to GLP1; parameters: concentration or dose not given beside the values
Glucagon receptor [4] = target: T3, Glucagon receptor (Homo sapiens, UniProt P47871); assay: Agonist activity at human GCG receptor expressed in HEK293 cells assessed as increase in cAMP level after 5 hrs by CRE driven luciferase reporter gene assay relative to glucagon
T3 sequence (P47871 whole entry): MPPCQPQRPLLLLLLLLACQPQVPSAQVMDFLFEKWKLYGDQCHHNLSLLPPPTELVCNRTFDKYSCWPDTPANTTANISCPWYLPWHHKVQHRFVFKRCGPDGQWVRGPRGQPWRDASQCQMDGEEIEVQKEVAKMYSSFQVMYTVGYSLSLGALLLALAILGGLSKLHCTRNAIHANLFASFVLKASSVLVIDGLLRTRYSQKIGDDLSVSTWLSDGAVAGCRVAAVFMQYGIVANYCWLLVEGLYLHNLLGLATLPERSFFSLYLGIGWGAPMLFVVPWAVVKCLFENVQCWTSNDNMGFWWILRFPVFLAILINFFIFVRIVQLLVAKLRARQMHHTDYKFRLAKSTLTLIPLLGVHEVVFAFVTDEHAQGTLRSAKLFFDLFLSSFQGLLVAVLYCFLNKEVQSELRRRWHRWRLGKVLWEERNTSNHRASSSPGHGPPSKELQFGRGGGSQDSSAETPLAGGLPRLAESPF

[5] = target: T4, Gastric inhibitory polypeptide receptor (Homo sapiens) (UniProt P48546); assay: Agonist activity at human GIP receptor expressed in HEK293 cells assessed as increase in cAMP level after 5 hrs by CRE driven luciferase reporter gene assay relative to GIP; parameters: concentration or dose not given beside the values
T4 sequence (whole entry): T2 sequence (P48546 whole entry)

Glucagon receptor [6] = target: T3, Glucagon receptor; assay: Agonist activity at human GCG receptor expressed in HEK293 cells assessed as increase in cAMP level after 5 hrs by CRE driven luciferase reporter gene assay

T1 sequence (P43220 whole entry): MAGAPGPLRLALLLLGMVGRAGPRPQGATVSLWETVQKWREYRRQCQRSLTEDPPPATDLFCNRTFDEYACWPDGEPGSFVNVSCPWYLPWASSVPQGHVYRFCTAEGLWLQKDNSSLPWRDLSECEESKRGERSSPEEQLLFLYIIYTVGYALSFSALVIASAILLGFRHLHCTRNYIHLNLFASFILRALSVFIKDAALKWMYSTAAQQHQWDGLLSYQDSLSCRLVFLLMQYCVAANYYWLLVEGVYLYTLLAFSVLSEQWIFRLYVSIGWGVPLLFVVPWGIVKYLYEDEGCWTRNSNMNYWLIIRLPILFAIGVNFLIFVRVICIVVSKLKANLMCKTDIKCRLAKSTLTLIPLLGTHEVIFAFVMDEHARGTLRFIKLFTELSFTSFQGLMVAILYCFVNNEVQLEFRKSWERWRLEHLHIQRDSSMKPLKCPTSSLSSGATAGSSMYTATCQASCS

Row | EC50 [1] | EC50 [2] | Activity [3] | Activity (Glucagon receptor [4]) | Activity [5] | EC50 (Glucagon receptor [6]) | Structure (SMILES)
1 | 4 pM | 133 pM | 700% | 457% | 15% | – | CCCCCCCCCCCCCCCC(=O)N[C@@H](CCC(=O)NCCCC[C@H](NC(=O)[C@H](CC(=O)O)NC(=O)[C@H](CO)NC(=O)[C@@H](NC(=O)[C@H](Cc1ccccc1)NC(=O)[C@@H](NC(=O)CNC(=O)[C@H](CCC(N)=O)NC(=O)C(C)(C)NC(=O)[C@@H](N)Cc1cnc[nH]1)[C@@H](C)O)[C@@H](C)O)C(=O)N[C@@H](CO)C(=O)N[C@@H](CCCCN)C(=O)N[C@@H](Cc1ccc(O)cc1)C(=O)N[C@@H](CC(C)C)C(=O)N[C@@H](CC(=O)O)C(=O)N[C@@H](CCC(=O)O)C(=O)N[C@@H](CCCNC(=N)N)C(=O)N[C@@H](C)C(=O)N[C@@H](C)C(=O)N[C@@H](CCC(N)=O)C(=O)N[C@@H](CC(=O)O)C(=O)N[C@@H](Cc1ccccc1)C(=O)N[C@H](C(=O)N[C@@H](CCC(N)=O)C(=O)N[C@@H](Cc1c[nH]c2ccccc12)C(=O)N[C@@H](CC(C)C)C(=O)N[C@@H](CC(C)C)C(=O)N[C@@H](CC(=O)O)C(=O)NCC(=O)N[C@@H](CCCNC(=N)N)C(=O)NCC(N)=O)C(C)C)C(=O)O
2 | – | – | 1400% | 800% | 2% | – | CCCCCCCCCCCCCCCC(=O)N[C@@H](CCC(=O)NCCCC[C@H](NC(=O)[C@H](CC(=O)O)NC(=O)[C@H](CO)NC(=O)[C@@H](NC(=O)[C@H](Cc1ccccc1)NC(=O)[C@@H](NC(=O)CNC(=O)[C@H](CCC(N)=O)NC(=O)[C@@H](CO)NC(=O)[C@@H](N)Cc1cnc[nH]1)[C@@H](C)O)[C@@H](C)O)C(=O)N[C@@H](CO)C(=O)N[C@@H](CCCCN)C(=O)N[C@@H](Cc1ccc(O)cc1)C(=O)N[C@@H](CC(C)C)C(=O)N[C@@H](CC(=O)O)C(=O)N[C@@H](CCC(=O)O)C(=O)N[C@@H](CCCNC(=N)N)C(=O)N[C@@H](C)C(=O)N[C@@H](C)C(=O)N[C@@H](CCC(N)=O)C(=O)N[C@@H](CC(=O)O)C(=O)N[C@@H](Cc1ccccc1)C(=O)N[C@H](C(=O)N[C@@H](CCC(N)=O)C(=O)N[C@@H](Cc1c[nH]c2ccccc12)C(=O)N[C@@H](CC(C)C)C(=O)N[C@@H](CC(C)C)C(=O)N[C@@H](CC(=O)O)C(=O)NCC(=O)N[C@@H](CCCNC(=N)N)C(=O)NCC(N)=O)C(C)C)C(=O)O
3 | 40 pM | – | 70% | 356% | 1% | 9 pM | CCCCCCCCCCCCCCCC(=O)N[C@@H](CCC(=O)NCCCC[C@H](NC(=O)[C@H](CC(=O)O)NC(=O)[C@H](CO)NC(=O)[C@@H](NC(=O)[C@H](Cc1ccccc1)NC(=O)[C@@H](NC(=O)CNC(=O)[C@H](CCC(N)=O)NC(=O)[C@@H](C)NC(=O)[C@@H](N)Cc1cnc[nH]1)[C@@H](C)O)[C@@H](C)O)C(=O)N[C@@H](CO)C(=O)N[C@@H](CCCCN)C(=O)N[C@@H](Cc1ccc(O)cc1)C(=O)N[C@@H](CC(C)C)C(=O)N[C@@H](CC(=O)O)C(=O)N[C@@H](CCC(=O)O)C(=O)N[C@@H](CCCNC(=N)N)C(=O)N[C@@H](C)C(=O)N[C@@H](C)C(=O)N[C@@H](CCC(N)=O)C(=O)N[C@@H](CC(=O)O)C(=O)N[C@@H](Cc1ccccc1)C(=O)N[C@H](C(=O)N[C@@H](CCC(N)=O)C(=O)N[C@@H](Cc1c[nH]c2ccccc12)C(=O)N[C@@H](CC(C)C)C(=O)N[C@@H](CC(C)C)C(=O)N[C@@H](CC(=O)O)C(=O)N[C@H](C(N)=O)[C@@H](C)O)C(C)C)C(=O)O

— ChEMBL document CHEMBL4219047, “Optimization of peptide-based polyagonists for treatment of diabetes and obesity” (Bioorg Med Chem, 2018)
